Assay [1] has as its system IMQ psoriasis animal model. Put plainly: Epidermal layer thickness (H&E) in IMQ psoriasis animal model. It is filed as in vivo, C57BL/6 mouse. The method, then: Psoriasis caused by excessive production of skin cells was a chronic skin disease associated with various factors, including autoimmune diseases, and its symptoms included red and thickened skin and abnormally occurring scaling. […] Specifically, the back region of a C57BL/6 mouse (male, 18 to 20 g, 8 weeks) (Daehan Biolink, Eumseong, Korea) was shaved to remove hair, and then applied with IMQ cream (83 mg/day) (5%) for consecutive 5 days from Day 0 to Day 4 to induce psoriasis-like skin inflammation, and a normal control mouse (Sham) was applied with Vaseline cream (FIG. 16A).
On day 6, the skin tissue of the psoriasis mouse model was stained with Hematoxyline & Eosin, and the epidermal layer thickness was measured. Specifically, on Day 6, the skin of the mouse back was extracted, immersed in 4% paraformaldehyde for 24 hours to fix the tissue, and then paraffin blocks were made to prepare paraffin tissue sections with a thickness of 5 µm. In order to measure the thickness of the epidermal layer, paraffin tissue was stained with Hematoxylene & Eosin (Abcam) according to the manufacturer's protocol, and five sections of the epidermal layer from each mouse were photographed at 200x magnification using an optical microscope. The epidermal layer thickness was measured in tissues from a total of five mice (a total of 25 sections) and the average value was calculated.

Assay [2] concerns nerve injury animal models (SCI, LSS, SNI). Put plainly: Mechanical allodynia (von-Frey filaments, 50% paw withdrawal threshold) in nerve injury animal models. Format: in vivo, Sprague-Dawley rats. The method, then: To be used as a central nerve injury animal model, a traumatic spinal cord injury (SCI) model was prepared (FIG. 1A). Specifically, 230 to 250 g of male adult Sprague-Dawley rats were anesthetized by intraperitoneal injection of chloral hydrate (500 mg/kg), and then the back and neck regions were shaved, and the spinal cord under the back and neck regions was exposed without damaging the dura mater, and a laminectomy was performed at T9 to T10 levels. To stabilize the spine, the spinous processes of T8 and T11 were fixed, and the spine was damaged by free-falling a 10 g weight from a height of 25 mm using an NYU impactor onto the back surface of the exposed spinal cord and then the rats were left in a temperature and humidity-controlled chamber overnight while covering the muscles and skin. After surgery, the rats were subcutaneously injected with a supplement solution (5 ml, lactated ringer) and injected with antibiotics (gentamicin, 5 mg/kg, intramuscular injection) once daily for 5 days. The body weight, remaining food, and the weight of water were confirmed and recorded for all animals, and the bladder was emptied twice daily by passive bladder massage until reflex micturition was established. At this time, a Sham group was a group that was subjected to only laminectomy without damage.
To be used as a peripheral nerve injury animal model, a lumbar spinal stenosis (LSS) model was prepared (FIG. 1B). Specifically, 260 to 280 g of adult male Sprague-Dawley rats were anesthetized with intraperitoneal injection of chloral hydrate (500 mg/kg), the back region was shaved, and then the spinal plate was exposed at L4 to S2 levels. After removing the ligamentous section between L4 and L5, a trapezoidal silicone block (1.00 mm long × 1.3 to 1.2 mm wide × 1.0 mm high) was inserted into the epidural space below the L5 and L6 spinal plates without damaging the dural sac. At this time, a Sham group was a group that was subjected to only posterior […] on the animal without inserting a silicone block.
To be used as a peripheral nerve injury animal model, a sciatic nerve injury (SNI) model was prepared (FIG. 1C). Specifically, 200 to 220 g of male adult Sprague-Dawley rats were anesthetized by intraperitoneal injection of chloral hydrate (500 mg/kg), and then three terminal branches (tibial, common peroneal, and sural nerves) of the right sciatic nerve were approached, and the tibia nerve and the peroneal nerve were tightly ligated with 4-0 silk, and neurectomy was performed at a distal 3 mm position of the ligation site. At this time, a Sham group was a group that exposed only the sciatic nerve without damage.
In order to confirm a neuropathic pain inhibitory effect of YJ102 (Chemical Formula 1), a compound of the present disclosure, in the three nerve injury animal models prepared in Example 1 above, rats having pain on week 3 (SNI model) or week 4 (SCI model and LSS model) after surgery were selected and administered orally (p.o.) at 10 mg/kg or 20 mg/kg of YJ102 dissolved in a solution of DMSO, methyl pyrrolidinone, and water (1 : 1.5 : 1), or intraperitoneally injected (i.p. injection) at 1, 2, or 5 mg/kg of YJ102. In a positive control group, gabapentin or pregabalin dissolved in saline was intraperitoneally injected at a concentration of 5 mg/kg, and in a Vehicle group, the same amount of a solution of DMSO, methyl pyrrolidinone, and water was administered. Thereafter, in order to measure mechanical allodynia, the rats were located at the bottom of a transparent plastic box (10 cm × 10 cm) on top of a wire mesh (3 mm × 3 mm) and subjected to an adaptation period for approximately 20 minutes. Von-Frey filaments were applied to the soles of both paws and used with stiff nylon von-Frey monofilament series ([…], Stoelting, WoodDale, IL, USA; equivalent in grams to 0.4, 0.6, 1.0, 2.0, 4.0, 6.0, 8.0 and 15.0) with logarithmic increases in tactile (mechanical) sensitivity. […]

Where [3] appears, read: all three models (SCI, LSS, SNI), orally 10 mg/kg or 20 mg/kg.

Some results are limits rather than exact numbers.

Regarding `CCc1ccc(N(C(=O)COC)c2nc3cc(Cl)ccc3o2)cc1` [YJ102], in assay [1] (Day 6), the “reduction of epidermal layer thickness compared to the Vehicle group” value is reported as “approximately 35%”. In assay [1] (Day 6, 5 mg/kg intraperitoneally, Sham 36.6 ± 2.3, Vehicle 141.3 ± 7.5), this compound displayed an epidermal layer thickness of 89.8 ± 6.8 µm. Moreover, the “number of cells introduced into the dermal layer” value in assay [1] (Day 6, skin tissue H&E) is reported as “decreased to the Sham level”. Moreover, in assay [2] (setting [3]), the “duration of the analgesic effect” value is ≥ 4 h and the “time from which the mechanical allodynia threshold was increased after administration” value worked out at 30 min. Also, the “analgesic effect compared with gabapentin or pregabalin” value in assay [2] (intraperitoneal, same concentration as gabapentin or pregabalin, SCI, LSS, SNI models) is “more than twice as high”. Also, in assay [2] (intraperitoneal, versus gabapentin and pregabalin, SCI, LSS, SNI models), the “duration of the analgesic effect compared with existing drugs” value is “more than three times longer”.

These data come from EP4699605A1, “USE OF NOVEL COMPOUND FOR TREATING INTRACTABLE DISEASES” (YJ Cerapeutics Inc., priority 2023, dated 2024).
